pEC50: −log10 of the molar value.
Tests used:
[1] = system: plasma cytokines/chemokines; assay: Cytokine/chemokine analysis in plasma; assay type: in vivo, rhesus macaque; conditions: 4 hours post dose
Excerpt: For plasma cytokine analysis (S1 Table), whole blood was collected into K2EDTA tubes from C-232A and vehicle dosed rhesus macaques (prebleed and various post-dose time points) and plasma was isolated and stored at −80^ºC. Cytokine/chemokine analysis in plasma samples was accomplished using a nonhuman primate-specific 37 Plex ProcartaPlex immunoassay system (Thermo Fisher Scientific) according to the manufacturer’s instructions. Samples were then read on a Luminex 200 (Luminex) platform and analyzed using Bio-plex Manager software (Bio-Rad).

PKC-β1 = PKC-β1 (Homo sapiens, UniProt P05771); assay: PKC isoform translocation in A549-tGFP cells; assay type: cell-based; parameters: host or cells: A549; conditions: 60 minutes
Chain of PKC-β1 (P05771 whole entry, canonical isoform): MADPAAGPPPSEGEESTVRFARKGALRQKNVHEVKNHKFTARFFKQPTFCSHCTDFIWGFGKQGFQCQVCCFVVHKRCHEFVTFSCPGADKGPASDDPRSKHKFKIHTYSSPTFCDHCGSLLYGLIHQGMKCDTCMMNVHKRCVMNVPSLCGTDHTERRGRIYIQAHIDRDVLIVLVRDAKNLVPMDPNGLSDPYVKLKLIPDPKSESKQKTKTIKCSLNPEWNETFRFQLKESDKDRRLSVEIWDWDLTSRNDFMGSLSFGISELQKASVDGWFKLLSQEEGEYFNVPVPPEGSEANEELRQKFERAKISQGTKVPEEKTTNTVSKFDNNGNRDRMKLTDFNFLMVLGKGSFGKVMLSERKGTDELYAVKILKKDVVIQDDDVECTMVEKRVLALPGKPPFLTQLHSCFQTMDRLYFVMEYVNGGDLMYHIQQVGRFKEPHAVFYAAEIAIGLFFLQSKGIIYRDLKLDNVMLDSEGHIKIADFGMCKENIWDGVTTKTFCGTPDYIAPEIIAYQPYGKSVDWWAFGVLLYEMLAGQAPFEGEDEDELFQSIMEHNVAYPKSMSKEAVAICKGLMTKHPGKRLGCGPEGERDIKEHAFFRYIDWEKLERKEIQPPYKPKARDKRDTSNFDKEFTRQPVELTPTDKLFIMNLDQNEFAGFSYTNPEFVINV
Method: (§1) Using these findings we embarked on new designs for DAG-lactones with additional substituents from the ester moiety in combination with a few olefin substituents. A description of this effort is reported elsewhere.
(§2) Cellular translocation of PKC isoforms upon activation was determined in 8 A549 cell lines, each expressing a single PKC isoform fused to tGFP (PhenoVista Biosciences). Cells were plated in 384-well plates (80 μL/well) at 10^5 cells/mL in RPMI with 10% FBS and rested overnight. PKC agonist(s) were serially diluted at 1:3 steps in DMSO and added to the cells. After 60 minutes in an incubator at 37 °C, 5% CO2, cells were stained with Hoechst-33342 and fixed with 2% paraformaldehyde for 30 minutes at 4 °C. Cells were then stained with wheat germ agglutinin conjugated to AlexaFluor647 (WGA-647) for 10 minutes at 4 °C, washed to remove excess dye and imaged with Cellomics Array Scan (Thermo Fisher) at room temperature (RT). Images were analyzed using Cellomics automated image analysis algorithm. Plasma membrane translocation was quantified using the ratio between the average fluorescence in the areas at the cell edge defined by WGA-647 and the cytoplasm region.

PKC-β2 = PKC-β2 (Homo sapiens, UniProt P05771); assay: PKC isoform translocation in A549-tGFP cells; assay type: cell-based; parameters: host or cells: A549; conditions: 60 minutes
Chain of PKC-β2 (P05771 1-673 isoform P05771-2): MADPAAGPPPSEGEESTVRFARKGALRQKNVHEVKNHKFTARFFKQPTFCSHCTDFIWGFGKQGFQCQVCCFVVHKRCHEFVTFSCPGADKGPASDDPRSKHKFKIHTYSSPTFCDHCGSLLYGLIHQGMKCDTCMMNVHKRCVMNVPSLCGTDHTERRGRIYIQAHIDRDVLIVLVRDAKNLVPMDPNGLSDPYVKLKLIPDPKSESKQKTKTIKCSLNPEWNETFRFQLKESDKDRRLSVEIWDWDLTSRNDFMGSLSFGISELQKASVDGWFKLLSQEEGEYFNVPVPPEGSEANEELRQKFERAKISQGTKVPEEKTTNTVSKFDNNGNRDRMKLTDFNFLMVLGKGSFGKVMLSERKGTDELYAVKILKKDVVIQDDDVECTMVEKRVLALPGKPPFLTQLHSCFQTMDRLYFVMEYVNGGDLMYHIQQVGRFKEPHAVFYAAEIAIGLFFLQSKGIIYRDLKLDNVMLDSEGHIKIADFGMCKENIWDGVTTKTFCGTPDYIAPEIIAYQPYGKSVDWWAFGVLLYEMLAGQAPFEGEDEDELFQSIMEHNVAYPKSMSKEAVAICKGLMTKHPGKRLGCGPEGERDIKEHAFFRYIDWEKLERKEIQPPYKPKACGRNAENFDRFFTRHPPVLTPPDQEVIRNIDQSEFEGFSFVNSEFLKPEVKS
Method: as §1, §2

PKC-γ = PKC-γ (Homo sapiens, UniProt P05129); assay: PKC isoform translocation in A549-tGFP cells; assay type: cell-based; parameters: host or cells: A549; conditions: 60 minutes
Method: as §1, §2

[2] = Plasma PK in rhesus macaques; assay type: in vivo, rhesus macaque; conditions: 0.03, 0.1, 0.3, and 1 mg/kg, slow IV infusion
Method: Male rhesus macaque monkeys (young adult to adult) were sourced from the Covance stock colony for conduct of in vivo studies at Covance Laboratories Inc. (Madison, Wisconsin, USA). Monkeys were administered a single dose of vehicle control (n = 3), 0.03, 0.1, 0.3, or 1 mg/kg of C-232A (n = 1) by intravenous infusion over 30 minutes using a sentinel approach. An additional 2 male monkeys were administered 0.3 mg/kg C232A after it was determined that this was the maximum tolerated dose level. Blood samples were collected through 24 hours postdose. Samples for PK (for measurement of C-232A concentration) and cytokine analysis were processed to plasma and shipped to Gilead Sciences. Activation of CD4^+ T cells was assessed by measuring CD69 expression levels in whole blood by flow cytometry (Covance Laboratories). Samples for clinical pathology were analyzed at Covance Laboratories for hematology, coagulation, and clinical chemistry panels. […] Tissues were then evaluated independently (Experimental Pathology Laboratories, Inc).
Rat and rhesus plasma samples (20 µL aliquot of each) were treated with 100 µL acetonitrile containing a generic internal small-molecule standard. […] The descriptive PK parameters were analyzed using noncompartmental analysis with Phoenix WinNonlin software (version 8.2, Certara USA, Inc.). […]

Cc1ccc(C#Cc2ccc3oc(CC(C)(C)C(=O)OCC4(CO)CC(=CCC(CC(C)C)CC(C)C)C(=O)O4)cc3c2)cc1 (stereo not shown) [C-232A]
I-TAC in plasma ([1]; 0.03 mg/kg): 88 pg/mL
IFN-α in plasma ([1]; 0.03 mg/kg): 90 pg/mL
IFN-γ in plasma ([1]; 0.03 mg/kg): 43 pg/mL
IL-1RA in plasma ([1]; 0.03 mg/kg): 169 pg/mL
IL-1β in plasma ([1]; 0.03 mg/kg): 45 pg/mL
IL-6 in plasma ([1]; 0.03 mg/kg): 43 pg/mL
IL-8 in plasma ([1]; 0.03 mg/kg): 275 pg/mL
IL-10 in plasma ([1]; 0.03 mg/kg): 42 pg/mL
IL-18 in plasma ([1]; 0.03 mg/kg): 114 pg/mL
MCP-1 in plasma ([1]; 0.03 mg/kg): 1900 pg/mL
MIG in plasma ([1]; 0.03 mg/kg): 55 pg/mL
MIP-1α in plasma ([1]; 0.03 mg/kg): 208 pg/mL
MIP-1β in plasma ([1]; 0.03 mg/kg): 131 pg/mL
TNF-α in plasma ([1]; 0.03 mg/kg): 56 pg/mL
VEGF-A in plasma ([1]; 0.03 mg/kg): 107 pg/mL
I-TAC in plasma ([1]; 0.1 mg/kg): 427 pg/mL
IFN-α in plasma ([1]; 0.1 mg/kg): 143 pg/mL
IFN-γ in plasma ([1]; 0.1 mg/kg): 75 pg/mL
IL-1RA in plasma ([1]; 0.1 mg/kg): 775 pg/mL
IL-1β in plasma ([1]; 0.1 mg/kg): 70 pg/mL
IL-6 in plasma ([1]; 0.1 mg/kg): 126 pg/mL
IL-8 in plasma ([1]; 0.1 mg/kg): 2531 pg/mL
IL-10 in plasma ([1]; 0.1 mg/kg): 80 pg/mL
IL-18 in plasma ([1]; 0.1 mg/kg): 193 pg/mL
MCP-1 in plasma ([1]; 0.1 mg/kg): 3250 pg/mL
MIG in plasma ([1]; 0.1 mg/kg): 64 pg/mL
MIP-1α in plasma ([1]; 0.1 mg/kg): 160 pg/mL
MIP-1β in plasma ([1]; 0.1 mg/kg): 428 pg/mL
TNF-α in plasma ([1]; 0.1 mg/kg): 39 pg/mL
VEGF-A in plasma ([1]; 0.1 mg/kg): 161 pg/mL
I-TAC in plasma ([1]; 0.3 mg/kg): 365 pg/mL
IFN-α in plasma ([1]; 0.3 mg/kg): 112 pg/mL
IFN-γ in plasma ([1]; 0.3 mg/kg): 53 pg/mL
IL-1RA in plasma ([1]; 0.3 mg/kg): 2265 pg/mL
IL-1β in plasma ([1]; 0.3 mg/kg): 59 pg/mL
IL-6 in plasma ([1]; 0.3 mg/kg): 76 pg/mL
IL-8 in plasma ([1]; 0.3 mg/kg): 375 pg/mL
IL-10 in plasma ([1]; 0.3 mg/kg): 54 pg/mL
IL-18 in plasma ([1]; 0.3 mg/kg): 145 pg/mL
MCP-1 in plasma ([1]; 0.3 mg/kg): 6117 pg/mL
MIG in plasma ([1]; 0.3 mg/kg): 55 pg/mL
MIP-1α in plasma ([1]; 0.3 mg/kg): 187 pg/mL
MIP-1β in plasma ([1]; 0.3 mg/kg): 707 pg/mL
TNF-α in plasma ([1]; 0.3 mg/kg): 19 pg/mL
VEGF-A in plasma ([1]; 0.3 mg/kg): 81 pg/mL
I-TAC in plasma ([1]; 1 mg/kg): 5602 pg/mL
IFN-α in plasma ([1]; 1 mg/kg): 187 pg/mL
IFN-γ in plasma ([1]; 1 mg/kg): 200 pg/mL
IL-1RA in plasma ([1]; 1 mg/kg): 4471 pg/mL
IL-1β in plasma ([1]; 1 mg/kg): 343 pg/mL
IL-6 in plasma ([1]; 1 mg/kg): 3872 pg/mL
IL-8 in plasma ([1]; 1 mg/kg): 6153 pg/mL
IL-10 in plasma ([1]; 1 mg/kg): 82 pg/mL
IL-18 in plasma ([1]; 1 mg/kg): 351 pg/mL
MCP-1 in plasma ([1]; 1 mg/kg): 13,620 pg/mL
MIG in plasma ([1]; 1 mg/kg): 658 pg/mL
MIP-1α in plasma ([1]; 1 mg/kg): 1111 pg/mL
MIP-1β in plasma ([1]; 1 mg/kg): 3913 pg/mL
TNF-α in plasma ([1]; 1 mg/kg): 28 pg/mL
VEGF-A in plasma ([1]; 1 mg/kg): 330 pg/mL
pEC50 (PKC-β1): 5.48
pEC50 (PKC-β2): 5.64
pEC50 (PKC-γ): 4.94
PK plasma profile [2]: dose-dependent C-232A PK plasma profiles
